Assay results taken from ChEMBL document CHEMBL1681728, “An automated, polymer-assisted strategy for the preparation of urea and thiourea derivatives of 15-membered azalides as potential antimalarial chemotherapeutics” (Bioorg Med Chem, 2011).

Tests used:
Assay type in all cases: functional, organism-based
Plasmodium falciparum [1] = experiment: Antimalarial activity against multidrug-resistant Plasmodium falciparum TM91C235 assessed as inhibition of [3H]hypoxanthine incorporation after 96 hrs by microtiter plate scintillation counting
Plasmodium falciparum [2] = experiment: Antimalarial activity against chloroquine-,pyrimethamine-resistant Plasmodium falciparum W2 assessed as inhibition of [3H]hypoxanthine incorporation after 96 hrs by microtiter plate scintillation counting
Plasmodium falciparum [3] = experiment: Antimalarial activity against chloroquine-sensitive Plasmodium falciparum D6 assessed as inhibition of [3H]hypoxanthine incorporation after 96 hrs by microtiter plate scintillation counting

CC[C@H]1OC(=O)[C@H](C)[C@@H](O[C@H]2C[C@@](C)(OC)[C@@H](O)[C@H](C)O2)[C@H](C)[C@@H](O[C@@H]2O[C@H](C)C[C@H](N(C)C)[C@H]2O)[C@](C)(O)C[C@@H](C)CN(CCCNC(=O)Nc2ccc(C)cc2C)[C@H](C)[C@@H](O)[C@]1(C)O
IC50 (Plasmodium falciparum [1]): 232 nM | IC50 (Plasmodium falciparum [2]): 179 nM | IC50 (Plasmodium falciparum [3]): 470 nM

CC[C@H]1OC(=O)[C@H](C)[C@@H](O[C@H]2C[C@@](C)(OC)[C@@H](O)[C@H](C)O2)[C@H](C)[C@@H](O[C@@H]2O[C@H](C)C[C@H](N(C)C)[C@H]2O)[C@](C)(O)C[C@@H](C)CN(CCCNC(=O)NC2CCN(C(=O)OCc3ccccc3)CC2)[C@H](C)[C@@H](O)[C@]1(C)O
IC50 (Plasmodium falciparum [1]): 236 nM | IC50 (Plasmodium falciparum [2]): 276 nM | IC50 (Plasmodium falciparum [3]): 635 nM

CC[C@H]1OC(=O)[C@H](C)[C@@H](O[C@H]2C[C@@](C)(OC)[C@@H](O)[C@H](C)O2)[C@H](C)[C@@H](O[C@@H]2O[C@H](C)C[C@H](N(C)C)[C@H]2O)[C@](C)(O)C[C@@H](C)CN(CCCNC(=S)NCc2ccco2)[C@H](C)[C@@H](O)[C@]1(C)O
IC50 (Plasmodium falciparum [1]): 240 nM | IC50 (Plasmodium falciparum [2]): 449 nM | IC50 (Plasmodium falciparum [3]): 329 nM

CCc1ccccc1NC(=S)NCCCN1C[C@H](C)C[C@@](C)(O)[C@H](O[C@@H]2O[C@H](C)C[C@H](N(C)C)[C@H]2O)[C@@H](C)[C@H](O[C@H]2C[C@@](C)(OC)[C@@H](O)[C@H](C)O2)[C@@H](C)C(=O)O[C@H](CC)[C@@](C)(O)[C@H](O)[C@H]1C
IC50 (Plasmodium falciparum [1]): 252 nM | IC50 (Plasmodium falciparum [2]): 96.2 nM | IC50 (Plasmodium falciparum [3]): 445 nM

CC[C@H]1OC(=O)[C@H](C)[C@@H](O[C@H]2C[C@@](C)(OC)[C@@H](O)[C@H](C)O2)[C@H](C)[C@@H](O[C@@H]2O[C@H](C)C[C@H](N(C)C)[C@H]2O)[C@](C)(O)C[C@@H](C)CN(CCCNC(=O)Nc2ccc3c(c2)OCO3)[C@H](C)[C@@H](O)[C@]1(C)O
IC50 (Plasmodium falciparum [1]): 265 nM | IC50 (Plasmodium falciparum [2]): 111 nM | IC50 (Plasmodium falciparum [3]): 835 nM

CC[C@H]1OC(=O)[C@H](C)[C@@H](O[C@H]2C[C@@](C)(OC)[C@@H](O)[C@H](C)O2)[C@H](C)[C@@H](O[C@@H]2O[C@H](C)C[C@H](N(C)C)[C@H]2O)[C@](C)(O)C[C@@H](C)CN(CCCNC(=S)NC(=O)c2ccccc2)[C@H](C)[C@@H](O)[C@]1(C)O
IC50 (Plasmodium falciparum [1]): 288 nM | IC50 (Plasmodium falciparum [2]): 107 nM | IC50 (Plasmodium falciparum [3]): 298 nM

CC[C@H]1OC(=O)[C@H](C)[C@@H](O[C@H]2C[C@@](C)(OC)[C@@H](O)[C@H](C)O2)[C@H](C)[C@@H](O[C@@H]2O[C@H](C)C[C@H](N(C)C)[C@H]2O)[C@](C)(O)C[C@@H](C)CN(CCCNC(=S)Nc2ccc(N(CC)CC)cc2)[C@H](C)[C@@H](O)[C@]1(C)O
IC50 (Plasmodium falciparum [1]): 298 nM | IC50 (Plasmodium falciparum [2]): 684 nM | IC50 (Plasmodium falciparum [3]): 765 nM

CC[C@H]1OC(=O)[C@H](C)[C@@H](O[C@H]2C[C@@](C)(OC)[C@@H](O)[C@H](C)O2)[C@H](C)[C@@H](O[C@@H]2O[C@H](C)C[C@H](N(C)C)[C@H]2O)[C@](C)(O)C[C@@H](C)CN(CCCNC(=O)Nc2cc(C)oc2C(F)(F)F)[C@H](C)[C@@H](O)[C@]1(C)O
IC50 (Plasmodium falciparum [1]): 320 nM | IC50 (Plasmodium falciparum [2]): 310 nM | IC50 (Plasmodium falciparum [3]): 361 nM

CC[C@H]1OC(=O)[C@H](C)[C@@H](O[C@H]2C[C@@](C)(OC)[C@@H](O)[C@H](C)O2)[C@H](C)[C@@H](O[C@@H]2O[C@H](C)C[C@H](N(C)C)[C@H]2O)[C@](C)(O)C[C@@H](C)CN(CCCNC(=S)Nc2ccsc2C(=O)OC)[C@H](C)[C@@H](O)[C@]1(C)O
IC50 (Plasmodium falciparum [1]): 330 nM | IC50 (Plasmodium falciparum [2]): 375 nM | IC50 (Plasmodium falciparum [3]): 452 nM

CC[C@H]1OC(=O)[C@H](C)[C@@H](O[C@H]2C[C@@](C)(OC)[C@@H](O)[C@H](C)O2)[C@H](C)[C@@H](O[C@@H]2O[C@H](C)C[C@H](N(C)C)[C@H]2O)[C@](C)(O)C[C@@H](C)CN(CCCNC(=S)NCCCSC)[C@H](C)[C@@H](O)[C@]1(C)O
IC50 (Plasmodium falciparum [1]): 354 nM | IC50 (Plasmodium falciparum [2]): 202 nM | IC50 (Plasmodium falciparum [3]): 898 nM

CCCCNC(=S)NCCCN1C[C@H](C)C[C@@](C)(O)[C@H](O[C@@H]2O[C@H](C)C[C@H](N(C)C)[C@H]2O)[C@@H](C)[C@H](O[C@H]2C[C@@](C)(OC)[C@@H](O)[C@H](C)O2)[C@@H](C)C(=O)O[C@H](CC)[C@@](C)(O)[C@H](O)[C@H]1C
IC50 (Plasmodium falciparum [1]): 382 nM | IC50 (Plasmodium falciparum [2]): 188 nM | IC50 (Plasmodium falciparum [3]): 655 nM

CC[C@H]1OC(=O)[C@H](C)[C@@H](O[C@H]2C[C@@](C)(OC)[C@@H](O)[C@H](C)O2)[C@H](C)[C@@H](O[C@@H]2O[C@H](C)C[C@H](N(C)C)[C@H]2O)[C@](C)(O)C[C@@H](C)CN(CCCNC(=O)Nc2ccc(C(C)=O)cc2)[C@H](C)[C@@H](O)[C@]1(C)O
IC50 (Plasmodium falciparum [1]): 398 nM | IC50 (Plasmodium falciparum [2]): 709 nM | IC50 (Plasmodium falciparum [3]): 1730 nM

CC[C@H]1OC(=O)[C@H](C)[C@@H](O[C@H]2C[C@@](C)(OC)[C@@H](O)[C@H](C)O2)[C@H](C)[C@@H](O[C@@H]2O[C@H](C)C[C@H](N(C)C)[C@H]2O)[C@](C)(O)C[C@@H](C)CN(CCCNC(=O)NCCc2cccs2)[C@H](C)[C@@H](O)[C@]1(C)O
IC50 (Plasmodium falciparum [1]): 405 nM | IC50 (Plasmodium falciparum [2]): 1040 nM | IC50 (Plasmodium falciparum [3]): 932 nM

CC[C@H]1OC(=O)[C@H](C)[C@@H](O[C@H]2C[C@@](C)(OC)[C@@H](O)[C@H](C)O2)[C@H](C)[C@@H](O[C@@H]2O[C@H](C)C[C@H](N(C)C)[C@H]2O)[C@](C)(O)C[C@@H](C)CN(CCCNC(=S)Nc2sc3c(c2C(=O)OC)CCCC3)[C@H](C)[C@@H](O)[C@]1(C)O
IC50 (Plasmodium falciparum [1]): 407 nM | IC50 (Plasmodium falciparum [2]): 229 nM | IC50 (Plasmodium falciparum [3]): 825 nM

CC[C@H]1OC(=O)[C@H](C)[C@@H](O[C@H]2C[C@@](C)(OC)[C@@H](O)[C@H](C)O2)[C@H](C)[C@@H](O[C@@H]2O[C@H](C)C[C@H](N(C)C)[C@H]2O)[C@](C)(O)C[C@@H](C)CN(CCCNC(=O)Nc2cc(C(=O)OC)cc(C(=O)OC)c2)[C@H](C)[C@@H](O)[C@]1(C)O
IC50 (Plasmodium falciparum [1]): 411 nM | IC50 (Plasmodium falciparum [2]): 120 nM | IC50 (Plasmodium falciparum [3]): 648 nM

CC[C@H]1OC(=O)[C@H](C)[C@@H](O[C@H]2C[C@@](C)(OC)[C@@H](O)[C@H](C)O2)[C@H](C)[C@@H](O[C@@H]2O[C@H](C)C[C@H](N(C)C)[C@H]2O)[C@](C)(O)C[C@@H](C)CN(CCCNC(=O)NC2CCCCC2)[C@H](C)[C@@H](O)[C@]1(C)O
IC50 (Plasmodium falciparum [1]): 411 nM | IC50 (Plasmodium falciparum [2]): 185 nM | IC50 (Plasmodium falciparum [3]): 1960 nM

CC[C@H]1OC(=O)[C@H](C)[C@@H](O[C@H]2C[C@@](C)(OC)[C@@H](O)[C@H](C)O2)[C@H](C)[C@@H](O[C@@H]2O[C@H](C)C[C@H](N(C)C)[C@H]2O)[C@](C)(O)C[C@@H](C)CN(C)[C@H](C)[C@@H](O)[C@]1(C)O [AZITHROMYCIN]
IC50 (Plasmodium falciparum [1]): 2060 nM | IC50 (Plasmodium falciparum [2]): 2240 nM | IC50 (Plasmodium falciparum [3]): 1020 nM
